Measured values from patent publication US20250025438A1, “Derivative of aspartic acid and use thereof in treatment of metabolic diseases such as hepatic fibrosis and non-alcoholic hepatitis” (SHENZHEN JINGTAI TECHNOLOGY CO., LTD., priority 2021, published 2025).
Counter-ions that a name gives are not always drawn.

Key:
Type in all cases: cell-based
[1] = system: collagen III; test: Semi-activated LX2 cells, Western blot: collagen III protein; settings: 50-400 μM, 48 hours, FIG. 1, vs 50 μM aspartic acid
Protocol: 4. Western blotting to detect protein expression level
4.1 Extraction of total cell protein: The cells were taken out, the original culture medium was discarded, 1 to 2 mL of 1×PBS was added, washing was performed twice, digestion was performed with trypsin, the supernatant was discarded, the cells at the bottom of the tube were gently moved by flicking, and then 1 mL of PBS was added again to wash the cells twice; after being centrifuged at 1200 rpm for 5 minutes, the supernatant was completely discarded, the cells at the bottom of the tube was mixed well by flicking. Depending on the amount of cells, 50 to 100 μL of protein lysis buffer containing protease inhibitor and phosphatase inhibitor was added, the cells were mixed thoroughly by pipetting, placed on ice and lysed for 30 minutes, then centrifuged at 12,000 rcf for 15 minutes at 4° C., and the supernatant was pipetted and transferred into a new EP tube to obtain the total cell protein, which could be directly used for subsequent determination of protein concentration or stored at −80° C.
4.2 Determination of protein concentration by BCA method: BCA reagent solution A and solution B were mixed well at a ratio of 50:1 to prepare a working solution; 5 μL of the sample to be tested was taken, added into 95 μL of deionized water, mixed, and diluted 20 times, and 20 μL of the diluted sample to be tested was taken and added to a 96-well plate; after 200 μL of the working solution was added, the 96-well plate was placed in a 37° C. incubator and incubated for 30 min, and then tested on the machine.
4.3 Protein denaturation: 100 μg of each of samples was taken respectively, supplemented with protein lysis buffer to reach the volume of each sample, then added with 4× loading buffer at 1/3 of the total volume and mixed thoroughly, underwent denaturation at 99° C. for 10 min, centrifuged and stored at −80° C. […]

[2] = system: IL-1β; test: In vitro efficacy in semi-activated LX2 cells, qPCR: IL-1β; settings: Homo sapiens, LX-2, 50 µM, 48 hours, Q-PCR, read-out: IL-1β mRNA inhibition rate
[3] = system: α-SMA; test: Semi-activated LX2 cells, Western blot: α-SMA protein; settings: 50-400 μM, 48 hours, FIG. 2, vs 50 μM aspartic acid

Compound	inhibitory effect on collagen III protein expression as compared to ASP [1]	inhibition at 50 µM [2] [%]	inhibitory effect on α-SMA protein as compared to ASP [3]
N[C@@H](CCC(=O)O)C(=O)O [Compound 47]	stronger inhibitory effects	1 to 10	stronger inhibitory effects
COC(=O)[C@@H](N)CC(=O)O [Compound 4]		1 to 10	stronger inhibitory effects
COC(=O)C[C@H](N)C(=O)O [Compound 6]	stronger inhibitory effects	1 to 10	stronger inhibitory effects
COC(=O)C[C@H](N)C(=O)OCOC(=O)[C@@H](N)CC(=O)OC [Compound 54, 4-dimethyl O′1,01-methylene (2S,2'S)-bis (2-aminosuccinate) hydrochloride]	stronger inhibitory effects		
